The text below walks through data of patent publication US12018265B2, “Nucleic acid encoding n-methylputrescine oxidase and uses thereof” (22nd Century Limited, LLC, priority 2006, dated 2024).

The subject of one experiment is MPO. To be noted: compared with N-methylated diamines; Hashimoto 1990, Walton and McLauchlan 1990, Boswell 1999; cited from earlier work.
Experiment [1] deals with MPO and PMT expression in roots. Put plainly: qRT-PCR analysis of MPO and PMT expression in MeJa-treated roots. In kind it is in vivo, Nicotiana benthamiana. To be noted: MeJa 11 μM in hydroponic solution. As for the experimental part: Nicotiana benthamiana (Solanaceae) seedlings were grown hydroponically in 0.25× Hoagland's solution supplemented with iron chelate solution and oxygenated using an aquarium bubbler. Roots from three-week old plants were sampled before (t=0) and at 1, 4, and 7 hours after addition of MeJa to a final concentration of 11 μM. Total RNA was isolated from 450 mg each of untreated leaves, untreated roots, and a combined MeJa-treated root sample composed of 150 mg roots each from the 1, 4 and 7 hour time points using a RNeasy midi kit (Qiagen). We constructed three separate subtractive cDNA libraries: NBREL2, with mRNA pooled from MeJa-treated roots as tester and untreated root mRNA as driver; NBLEL3, with mRNA pooled from MeJa-treated roots as tester and leaf mRNA as driver; and NBREL4, with mRNA pooled from MeJa-treated roots as both tester and driver.
The inducibility of MPO by MeJa application was determined using quantitative RT-PCR (qRT-PCR). The same PCR primers were used as for RT-PCR analysis of expression in different tissues. Total RNA was extracted from hydroponically grown roots immediately before and 1, 4, and 7 hours after addition of MeJa (11 μM) to the hydroponic solution. Hydroponic conditions are detailed in Example 1. […]
For orientation: In qPCR the cycle at which signal appears reflects the starting amount.

Experiment [2] relates to recombinant MPO (N-methylputrescine oxidase). Nature of the experiment: Recombinant MPO enzyme assay (Amplex red hydrogen peroxide/peroxidase system). In kind it is biochemical, Nicotiana benthamiana. As for the experimental part: Protein extracts was prepared from the roots of buffer control, TRV-GFP and TRV-MPO (214D11) infected plants. The extraction method described in Hashimoto T. et al. (Plant Physiol. 93: 216-221 (1990)) was used. Briefly, 1 g roots was ground in liquid nitrogen and suspended in 20 ml of extraction buffer containing 100 mM potassium phosphate pH 7.5, 0.25 M sucrose, 5 mM EDTA, 0.3% ascorbate and 10% PVPP. After centrifugation at 500 g for 30 min, the supernatant was further centrifuged at 11,000 g for another 30 minutes. The supernatant was subjected to two rounds of 20% and 40% ammonium sulphate precipitation. The precipitate was resuspended in 1 ml water, followed by dialysis overnight in 2 l of buffer containing 20 mM potassium phosphate pH 7.5, 1 mM DTT and 20% glycerol. The protein concentration was determined by DC protein assay kit (BioRad). […] After incubating the mixture at 30° C. for 30 min, the fluorescence was measured with a fluorescence microplate reader (Victor3 UV multilabel reader, PerkinElmer) using excitation at 530-560 nm and emission at 590 nm.
The ORF of the N. benthamiana MPO was expressed in E. coli and the recombinant enzyme was purified for biochemical characterization. […] The protein concentration was determined with DC protein assay kit (BioRad) and MPO purity was analyzed with SDS-PAGE electrophoresis (BioRad). […]

Turning to `NCCCCCN` [Cadaverine], in the experiment on MPO, the “Affinity as substrate for MPO” value is reported as “lower affinity than N-methylated diamines”.
Take `CC/C=C\CC1C(=O)CCC1CC(=O)OC` (centres unmarked) [MeJa, methyljasmonate]: the “Increase of MPO expression over pre-induction levels” value in experiment [1] (roots before and 1, 4, 7 hours after, actin reference (FIG. 3)) worked out at 23 fold. The “Change of PMT transcript levels in response to the inducer” value in experiment [1] (roots, compared with MPO (FIG. 3)) is recorded as “even more dramatic increase”.
Regarding `CNCCCCN` [N-methylputrescine], the Km (in general, the concentration of substrate that gives half-maximal velocity) in experiment [2] (1 μg Talon purified MPO, N-methylputrescine 10 mM to 0.01 mM, 30°, 30 minutes) was found to be 100 µM. Further, the “Substrate specificity of recombinant MPO” value in experiment [2] (1 mM of N-methylputrescine, putrescine, diaminopropane, cadaverine, spermine and spermidine (FIG. 9)) was “preferred N-methylputrescine as a substrate”.
